This is an account of results in patent publication US7011972B2, “Fusion polypeptide comprising two ligand binding domains” (The Scripps Research Institute, priority 2000, dated 2006).

“Also recorded” adds a separate entry of the source.

In test [1] the test system is E2C-TATA-luciferase reporter plasmid carrying a single E2C binding site. As to the kind of experiment: Luciferase reporter assay, E2C-TATA-luc in HeLa cells. The settings on record: 4-OHT. Type of test: cell-based. The protocol: A, structure of ER fusion proteins. E2C, six finger protein; L, flexible peptide linker. B, fusion proteins with a single ER-LBD bind as dimers. HeLa cells were cotransfected with a C7-ER-VP64 expression vector, and the indicated TATA luciferase reporter plasmids carrying either one or two C7 binding sites. 24 h after transfection, cells were either left untreated (−), or 100 nM 4-OHT was added (+). Luciferase activity in total cell extracts was measured 48 h after transfection. Each bar represents the mean value (+/−SD) of duplicate measurements. […] C, D, regulation of transcription through a single binding site by fusion proteins with two ER-LBDs. HeLa cells were cotransfected with the indicated expression vectors and the E2C-TATA-luciferase reporter plasmid, carrying a single E2C binding site upstream of a TATA box. 4-OHT induction and measurement of luciferase activity was carried out as described in B.
A, structure of single-chain RXR/EcR fusion proteins. B, regulation of transcription through a single binding site. HeLa cells were cotransfected with the indicated expression vectors and the E2C-TATA-luciferase reporter plasmid, carrying a single E2C binding site. 24 h after transfection, cells were either left untreated (−), or 5 μM Ponasterone A was added (+). Luciferase activity in total cell extracts was measured 48 h after transfection.
(§1) Luciferase and βP-gal reporter assays.
To overcome these problems, we produced two types of ER-based chimeric regulators, designed to be capable of regulating gene expression through a single binding site in a hormone-dependent manner. In the first strategy, a heterodimeric regulator was generated consisting of the engineered zinc finger protein E2C fused to an ER LBD, as well as an ER LBD fused to a VP64 activation domain (FIG. 2A). […] Addition of hormone led to a 3- to 5-fold stimulation of luciferase expression, indicating the formation of functional heterodimers. […]

Test [2] deals with 10×N1-TATA-β-gal reporter (with B3-PR-VP16 and N1-ER-VP64) in HeLa cells. As to the kind of experiment: Dual reporter assay, β-gal. Type of test: cell-based. The settings on record: HeLa cells expressing B3-PR-VP16 and N1-ER-VP64. The source says:
(§2) RU486- and Tamoxifen-inducible promoter constructs. 10×C7-TATA, 10×B3-TATA, and 10×N1-TATA fragments were assembled from two pairs of complementary oligonucleotides each and cloned into Sac1-Xma1 linearized pGL3-Basic (Promega), upstream of the firefly luciferase coding region, creating the plasmids 10×C7-TATA-luc, 10×B3-TATA-luc, and 10×N1-TATA-luc. To generate the 10×N1-TATA-lacZ reporter construct, the lacZ coding region was excised from pβgal-Basic (Clontech) and used to replace the luciferase coding region of 10×N1-TATA-luc via Hind3-BamH1 digestion. Luciferase and βP-gal reporter assays. […] Concomitant regulation of multiple promoters. Zinc finger technology has made a large repertoire of DNA binding specificities available for use in protein engineering [[…]., and Barbas, C. F., III (1998) Proc. Natl. Acad. Sci. USA 95, 14628-14633; […]., and Barbas, C. F., III (1999) Proc. Natl. Acad. Sci. USA 96, 2758-2763; […]., and Barbas, C. F., III (2000) Proc. Natl. Acad. Sci. USA 97, 1495-1500]. The availability of different steroid hormone receptor-derived regulatory domains [Littlewood, T. D., Hancock, […]., Parker, M. G., and Evan, G. I. (1995) Nucl. […] The transfected cells were treated with either RU486 or 4-OHT and the luciferase and β-gal activities were monitored.

The test system of test [3] is 10×B3-TATA-luc reporter (with B3-PR-VP16 and N1-ER-VP64) in HeLa cells. As to the kind of experiment: Dual reporter assay, luciferase. Type of test: cell-based. The settings on record: HeLa cells expressing B3-PR-VP16 and N1-ER-VP64.
Source text: as §2

Test [4] deals with T1, hPR (aa645-914) LBD (Homo sapiens, UniProt P06401).
T1 construct: The human PR truncated LBD (aa645-914) was amplified from PAPCMVGL914VPc′-SV; expressed in transfected cells; host or cells: HeLa cells, effector plasmid in pcDNA3.1(+)Zeo
T1 sequence (P06401 645-914): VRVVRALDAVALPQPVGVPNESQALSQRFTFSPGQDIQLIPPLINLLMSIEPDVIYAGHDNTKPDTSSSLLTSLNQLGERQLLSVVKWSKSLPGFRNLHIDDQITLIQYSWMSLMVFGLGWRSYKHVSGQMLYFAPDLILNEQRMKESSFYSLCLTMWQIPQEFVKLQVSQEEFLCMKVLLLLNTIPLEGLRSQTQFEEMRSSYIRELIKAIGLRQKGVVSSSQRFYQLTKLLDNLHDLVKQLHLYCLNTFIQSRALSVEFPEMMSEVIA
As to the kind of experiment: Ligand crossreactivity on PR fusion, 10×C7-TATA-luc reporter. Type of test: cell-based. The settings on record: PR LBD fusion proteins. The protocol: as §1
The chimeric transcriptional regulators were then tested for their ability to regulate the 10×C7-TATA-luc reporter plasmid in a hormone dependent manner. 10×C7-TATA-luc contains ten C7 binding sites [5′-GCG TGG GCG-3′] spaced by 5 nucleotides, and a TATA box, upstream of the firefly luciferase coding region. […] RU486 stimulated the activity of VP16-C7-PR 26-fold, while 4-OHT led to a 43-fold activation of VP16-C7-ER. […] The presence of a NLS in either position was not only not required, but even undesirable, since it led to an increased basal (i.e. hormone-independent) activity of the fusion constructs, presumably through increased nuclear localization. Thus, the hPR (aa645-914) and mER (aa281-599, G525R) LBDs are able to confer hormone-dependence onto the zinc finger protein C7.

In test [5] the target is ER-VP64 (mouse) (UniProt P19785). Put plainly: cell-based or functional assay.

As for “E2C-scER/30-VP64: single-chain fusion of E2C, two ER LBDs joined by 30 amino acid linker, VP64”, the “hormone-dependent activation of E2C-TATA-luc reporter” value (“hormone-dependent activation” below) in test [1] was “efficiently activated”.

As to 4-hydroxytamoxifen [4-OHT], in test [2], the “β-gal reporter gene activity (10×N1-TATA-β-gal)” value is “efficiently activated”. In addition, the “luciferase expression (10×B3-TATA-luc)” value in test [3] is “did not affect”. In test [4], the “crossreactivity between 4-OHT and PR” value is given as “no detectable crossreactivity; also recorded: no detectable crossreaction”. Molecule E2C-ER (from UniProt P19785 281-599) had a luciferase expression from the E2C-TATA-luc reporter (single E2C site) in HeLa cells, stimulation by 4-OHT in test [5] of 3 to 5 fold. For the molecule `CC#C[C@]1(O)CC[C@H]2[C@@H]3CCC4=CC(=O)CCC4=C3[C@@H](c3ccc(N(C)C)cc3)C[C@@]21C` [RU486, 11β-(4-dimethylaminophenyl)-17β-hydroxy-17α-propinyl-4,9-e stradiene-3-one], the “β-gal reporter gene activity (10×N1-TATA-β-gal)” value in test [2] is “no effect”.

As to “E2C-scER/18-VP64: single-chain fusion of E2C, two ER LBDs joined by 18 amino acid linker, VP64”, the “hormone-dependent activation” value in test [1] was “efficiently activated”.

B1: ER-VP64: ER LBD fused to a VP64 activation domain (protein)
chain: RNEMGASGDMRAANLWPSPLVIKHTKKNSPALSLTADQMVSALLDAEPPMIYSEYDPSRPFSEASMMGLLTNLADRELVHMINWAKRVPGFGDLNLHDQVHLLECAWLEILMIGLVWRSMEHPGKLLFAPNLLLDRNQGKCVEGMVEIFDMLLATSSRFRMMNLQGEEFVCLKSIILLNSGVYTFLSSTLKSLEEKDHIHRVLDKITDTLIHLMAKAGLTLQQQHRRLAQLLLILSHIRHMSNKRMEHLYNMKCKNVVPLYDLLLEMLDAHRLHAPASRMGVPPEEPSQTQLATTSSTSAHSLQTYYIPPEAEGFPNTI
modifications: left off: large carriers
For the molecule B1, the “hormone-dependent activation” value in test [1] was “inactive”.
